Test results as given in patent US20250082774A1, “PEPTIDE LINKERS COMPRISING TWO OR MORE PAYLOADS” (ARARIS BIOTECH AG, priority 2022, published 2025).
“Also recorded” adds a separate entry of the source.

Tests used:
various tumor cell lines = conditions: cited from earlier work
[1] = test system: SUM190PT (Nectin-4-positive, solid tumor) xenograft; assay: Tumor growth inhibition in SUM190PT xenograft model; assay type: in vivo, CB17 SCID mice; conditions: single i.v. injection
Experimental: For SUM190PT xenografts, 2×10^6 cells were injected into the mammary fat pad of CB17 SCID mice (Janvier). Tumor dimensions and body weights were recorded three times weekly. The tumor volume was calculated according to the formula volume=(width)^2×length×0.5. When the average tumor size reached about 200 mm^3, mice were allocated using a non-random stratification protocol into the treatment groups comprising six mice each. ADCs were intravenously injected once on the day of randomization. The ADCs according to this invention were produced in-house as described in Example 2. Enfortumab vedotin (DAR 4) was commercially available, bought from a pharmacy. ARA-04-MMAE-PABC-AA-C2-RKAA-PABC-MMAE (DAR 4.0) and ARA-04-RKAA-PABC-(MMAE)2 (DAR 3.8) were injected at ADC doses corresponding to 10 μg payload dose per kg mouse weight (10 μg/kg). Enfortumab vedotin (DAR 4) was injected 15 μg payload dose per kg mouse weight (15 μg/kg). Mice in the control group were injected with PBS. All mouse experiments were performed in accordance with Swiss guidelines and were approved by the Veterinarian Office of Zurich, Switzerland.

RNA-polymerase II = RNA-polymerase II (Homo sapiens, UniProt P24928); conditions: read-out: KD of the complex between amanitin and RNA-polymerase II; cited from earlier work
[2] = 10 μg/kg payload dose, six mice per group

CC[C@H](C)[C@H](NC(=O)[C@H]1CCCCN1C)C(=O)N(COC(=O)CC(C)C)[C@H](C[C@@H](OC(C)=O)c1nc(C(=O)N[C@@H](Cc2ccc(O)cc2)C[C@H](C)C(=O)O)cs1)C(C)C [Tubulysin A]
IC50, cytostatic effects (various tumor cell lines): picomolar range

ARA-04-MMAE-PABC-AA-C2-RKAA-PABC-MMAE: anti-Nectin-4 ADC (DAR 4.0), same antibody and payload as Enfortumab vedotin, payloads at N- and C-terminal end of peptide linker
anti-tumor response (in words) [1, 2]: active in vivo; also recorded: superior efficacy providing survival advantage | mice with complete long-lasting responses [1, 2]: 4/6

ARA-04-RKAA-PABC-(MMAE)2: anti-Nectin-4 ADC (DAR 3.8), same antibody and payload as Enfortumab vedotin, payloads only at C-terminal end of peptide linker
anti-tumor response (in words) [1, 2]: tumor control for approximately 20 days in 6/6 mice followed by re-growth of tumors; also recorded: active in vivo

Enfortumab vedotin [reference compound]
animals with marked regrowth after day 40 ([1]; 15 μg/kg payload dose): 6/6 | anti-tumor response (in words) ([1]; 15 μg/kg payload dose, six mice per group): transient tumor regression with no tumor-free individuals at 20 days after treatment

amanitin
Kd (RNA-polymerase II): 3 nM
